For orientation: inhibition means the share of the control response that was lost under treatment.

We go through 1 compound from publication PMC7614683, “A small molecule PI3Kα activator for cardioprotection and neuroregeneration” (Nature, 2023).

One experiment has as its system PI3Kα-WT A549 cells. The experiment is described as follows: TIRF microscopy of PIP3 reporter, PI3Kα-WT A549. Type of experiment: cell-based, human. As to conditions: 1938, then BYL719 0.5 μM. Here is the method:
Phosphoinositide reporters used were GFP-PH-ARNO^I303Ex2 (PIP3 reporter[41]) and mCherry-cPH-TAPP1x3 (PI(3,4)P2 reporter[41]). TIRF microscopy allows selective imaging of the small cell volume, including the plasma membrane, directly adjacent to the coverslip onto which cells have been seeded. HeLa or A549 cells were seeded in Matrigel-coated (Corning #354230; diluted in Opti-MEM at 1:50) 8-well chamber slides (glass bottom, 1.55 refractive index; Thermo Fisher Scientific #155409) at a density of 5,000 cells/well. […]
Image analyses of total reporter intensities were performed with the Fiji open source image analysis package. The region of interest (ROI) corresponding to the footprint of the individual cell across time points were defined using minimal intensity projection to select only pixels present across all time points, following prior subtraction of camera noise (rolling ball method, radius = 500 pixels) and xy drift correction, intensity levels over time were measured. […] All other quantifications were performed using the open source software R/RStudio. The values plotted in Fig. 3d (iii) represent mean±SEM, following signal scaling to minimum and maximum values of the normalised fluorescence intensity for each time point (Fn(t)). […]

The next experiment concerns the target BRK (Homo sapiens, UniProt Q13882). The experiment is described as follows: SelectScreen kinase profiling, BRK. Type of experiment: biochemical. Here is the method: 133 protein kinases and 7 lipid kinases were counterscreened, with 1938 used at 1 μM, using the Adapta, Lantha and Z-LYTE assays (SelectScreen Kinase Profiling Service; Thermofisher – experimental details of these assays can be found here: https://www.thermofisher.com/uk/en/home/industrial/pharma-biopharma/drug-discovery-development/target-and-lead-identification-and-validation/kinasebiology/kinase-activity-assays.html. The tree represention in KinMap[59] generated courtesy of Cell Signaling Technology, Inc. (www.cellsignal.com). mTORC1 (mTOR/RAPTOR/LST8) protein complex and ATM kinase and substrates were produced as previously described[57],[60]. Screening of 1938 was conducted using SuperSep Phos-Tag 50 μmol/l 100 x 100 x 6.6 mm 17-well (192-18001/199-18011) gels. For ATM assays, 100 nM ATM was incubated for 30 min at 30°C with 5 μM GST-p53 and 1 mM ATP, in the absence or presence of 200 μM 1938 in ATM Kinase Buffer (50 mM HEPES pH 7.5, 100 mM NaCl, 10% glycerol, 2 mM […], 5 mM MgCl2). As a positive control for ATM activation, the same reaction was carried out with 100 nM ATM/5 μM GST-p53/1 mM ATP in the presence of 100 nM Mre11-Rad50-Nbs1 (MRN) complex, a known activator of ATM[61]. For mTORC1 assays, 50 nM mTORC1 complex (mTOR/LST8/RAPTOR) was incubated for 3 h at 30°C with 15 μM 4E-BP1, 10 mM MgCl2 and 250 μM ATP, in the absence or presence of 200 μM 1938. As a ‘positive’ control, a higher concentration (150 nM) of mTORC1 complex (mTOR/LST8/RAPTOR) was incubated for 3 h at 30°C with 15 μM 4E-BP1, 10 mM MgCl2 and 250 μM ATP. Kinase reactions were quenched by addition of SDS-PAGE Loading Buffer (as per manufacturer’s instructions) and freezing at -20°C before being run on the Phos-tag gels at 150 V for 90 min. Gels were then stained using InstantBlue™ Coomassie, and quantified using BioRad Image Lab Software. Kinase assays were carried out in triplicate.

Where two headings read alike, the source gives them in different places.

Sequence of BRK (Q13882 whole entry): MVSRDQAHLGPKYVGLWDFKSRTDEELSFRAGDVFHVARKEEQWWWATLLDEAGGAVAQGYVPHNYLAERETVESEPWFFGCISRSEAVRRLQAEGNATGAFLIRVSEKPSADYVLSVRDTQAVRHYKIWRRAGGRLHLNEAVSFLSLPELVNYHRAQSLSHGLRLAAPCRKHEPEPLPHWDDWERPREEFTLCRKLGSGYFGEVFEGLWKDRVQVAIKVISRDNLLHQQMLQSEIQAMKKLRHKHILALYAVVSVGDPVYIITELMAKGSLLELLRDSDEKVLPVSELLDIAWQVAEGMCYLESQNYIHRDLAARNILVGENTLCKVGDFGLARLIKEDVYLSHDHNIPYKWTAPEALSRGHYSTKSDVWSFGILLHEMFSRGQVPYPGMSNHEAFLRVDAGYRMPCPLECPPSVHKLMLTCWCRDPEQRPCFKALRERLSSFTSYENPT

On to `CCN1CCN(c2ccc(Nc3cc(Nc4cccc5c4N(C(C)=O)CC5)ccn3)cc2)CC1` [Compound 1938], for which the “plasma membrane PIP3 (biosensor)” value with PI3Kα-WT A549 cells is “acute plasma membrane-associated PIP3 production”. The inhibition at 1 µM turned out to be 55% on BRK (read-out: % Inhibition Point 1), 56% on BRK (read-out: % Inhibition Point 2) and 56% on BRK (read-out: % Inhibition mean).
